Measurements from patent US11723899B2, “ALK2 inhibitors for the treatment of anemia” (Incyte Corporation, priority 2020, dated 2023).

Legend:
[1] = 28-day repeat dose toxicity study in rats; assay type: in vivo
Text: (§1) Iron parameters and liver functional tests will be monitored clinically.
(§2) Potential increases in heart rate, skin/hair, and the gastrointestinal track will also be monitored clinically.

[2] = tested on: mouse adenine-induced chronic kidney disease model; test: Mouse adenine-induced chronic kidney disease (anemia) model; assay type: in vivo, male C57BL/6 mice
Text: The anemia associated with chronic kidney disease has been associated with the hepatic hormone hepcidin (Akchurin et al., Am. J. Physiol. Renal Physiol., 2016). Therefore, reduction of hepcidin levels through inhibition of ALK2 would be a useful therapeutic strategy to combat this aspect of the disease. To test this hypothesis, a murine model of chronic kidney disease that also leads to anemia was used. Orally administered adenine metabolizes to 2,8-dihydroxyadenine, which crystalizes in the tubules of the kidney. Build-up of this metabolite causes kidney injury (nephropathy), inflammation, and subsequently anemia. Mice (typically male C57B/6 mice age 6-10 weeks) are administered adenine (maximum dose of 50 mg/kg QD) by oral gavage for 28 days. During this time, mice are monitored weekly for changes in kidney function and hematology. Anemia onset is tracked by blood draws to measure complete blood count (CBC), which includes red blood cell count, hemoglobin levels, and hematocrit. Drops in these blood parameters would be indicative of anemia. […] Changes in kidney function are detectable within 10 days of adenine administration (Jia et al., BMC Nephrology, 2013; Rahman et al., PLoS One, 2018), and are monitored by analysis of plasma levels of creatinine and blood urea nitrogen (BUN) (Rahman et al., PLoS One, 2018). Increases in plasma creatinine, plasma BUN, and urine protein (>2 fold) are indicative of kidney injury. Body weights are also monitored weekly as a sign of overall fitness.
To investigate the ability of an ALK2 inhibitor to alleviate the anemia brought on by kidney injury, male C57BL/6 mice (Charles River Laboratories) were administered oral adenine (45 mg/kg QD) for 28 days. A cohort of mice were also administered vehicle solution to maintain a normal blood level baseline for comparison (n=10). Mice were monitored weekly for changes in blood parameters by CBC, and for changes in weight. Starting at 14 days post first administration of adenine, mice receiving adenine were dosed with either 30 mg/kg QD (n=8) or 100 mg/kg QD (n=9) Compound A, or vehicle control (n=10). Mice were dosed for 21 days, which includes […] after the cessation of adenine administration. Final analyses were performed one week after the last dose of Compound A, 42 days after adenine administration began. Shown in FIG. 1 are results from this experiment.
A study was performed to investigate the effects of starting the dosing of Compound A later in kidney disease progression at the point when hepcidin levels increase, at […]. Male C57BL/6 mice were administered oral adenine (45 mg/kg QD) for 28 days. A cohort of mice were also administered vehicle solution to maintain a normal blood level baseline for comparison (n=8). Mice were monitored weekly for changes in blood parameters by CBC, and for changes in weight. The mice receiving adenine were dosed with either 30 mg/kg QD (n=8) or 100 mg/kg QD (n=8) Compound A, or vehicle control (n=8). Compound A dosing began at either 14 or 21 days after adenine administration began and continued for 21 days, followed by one more week until blood analysis. The dosing that began on day 14 was termed “prophylactic” as it began before the increase in hepcidin occurs. Dosing that began on day 21 was termed “concomitant” as the dosing coincided with hepcidin level increase. […] Overall, Compound A was able to improve the anemia arising in this model. […]

[3] = Phase 1a single-dose, dose-escalation safety and tolerability study in healthy adult participants; assay type: in vivo, human; settings: single oral dose 10, 25, 50, 100 and 175 mg
Text: A Phase 1a, double-blind, randomized, placebo-controlled, single-dose, dose-escalation and food-effect study is being conducted with 2-amino-N-(4-hydroxybicyclo-[2.2.2]octan-1-yl)-5-(4-((1R,5S)-3-(tetrahydro-2H-pyran-4-yl)-3-azabicyclo-[3.1.0]hexan-1-yl)phenyl)nicotinamide (“Compound A”) in order to assess the safety, tolerability, and pharmacokinetics (PK) of Compound A when administered orally as a single dose to healthy adult participants.
Compound A has been administered as a single dose at the dose levels of 10 mg, 25 mg, 50 mg, 100 mg, and 175 mg once to 9 healthy participants at each dose level.

[4] = 28-day repeat dose toxicity study in dogs; assay type: in vivo
Text: as §1, §2

With `Nc1ncc(-c2ccc([C@@]34C[C@@H]3CN(C3CCOCC3)C4)cc2)cc1C(=O)NC12CCC(O)(CC1)CC2` [Compound A, 2-amino-N-(4-hydroxybicyclo-[2.2.2]octan-1-yl)-5-(4-((1R,5S)-3-(tetrahydro-2H-pyran-4-yl)-3-azabicyclo-[3.1.0]hexan-1-yl)phenyl)nicotinamide] the “findings at the no observed adverse effect level (NOAEL)” value ([1]; at NOAEL) was “slight increases in iron staining in the liver with no associated increase in liver function tests (LFTs) or microscopic findings in the liver”, the “liver findings at higher doses” value ([1]; doses above NOAEL) was “increases in serum alanine aminotransferase (ALT) and aspartate aminotransferase (AST) and microscopic findings in the liver” and the “additional adverse findings considered related to inhibition of ALK3” value ([1]; higher doses, species not given) was “mucosal hypertrophy and hyperplasia in the gastrointestinal tract with associated changes in the mesenteric lymph nodes, anagen phase arrest of hair follicles, and further alterations in iron metabolism”. For the same compound, the “hemoglobin levels relative to normal range” value ([2]; 100 mg/kg QD, prophylactic dosing (from day 14), FIG. 2) was “returned hemoglobin levels that are within the normal range”, the body weights ([2]; 30 or 100 mg/kg QD for 21 days from day 14, vs adenine without Compound A, FIG. 1 right) was “increased weights” and the “hemoglobin levels, prophylactic dosing” value ([2]; 30 or 100 mg/kg QD for 21 days starting day 14 of adenine, FIG. 2 left) was “dose dependent increase in hemoglobin levels”. For the same compound, the “hemoglobin levels, concomitant dosing” value ([2]; 30 or 100 mg/kg QD for 21 days starting day 21 of adenine, FIG. 2 right) was “significant increases in hemoglobin levels that were dose dependent”, the “hemoglobin (HGB) levels” value ([2]; day 42, 30 or 100 mg/kg QD for 21 days starting 14 days after first adenine (45 mg/kg QD, 28 days), vs adenine + vehicle, FIG. 1 left) was “dose-dependently improved hemoglobin (HGB) levels” and the “severe adverse events (SAEs)” value ([3]; 9 healthy participants per dose level) was “No severe adverse events (SAEs) have been observed”. For the same compound, the “severity of adverse events (AEs)” value ([3]; all dose levels) was “mild and self-limiting”, the “findings at the no observed adverse effect level (NOAEL)” value ([4]; 28-day repeat dose, at NOAEL) was “slight increases in iron staining in the liver with no associated increase in liver function tests (LFTs) or microscopic findings in the liver” and the “liver findings at higher doses” value ([4]; 28-day repeat dose, doses above NOAEL) was “increases in serum alanine aminotransferase (ALT) and aspartate aminotransferase (AST) and microscopic findings in the liver”. The “additional adverse findings considered related to inhibition of ALK3” value ([4]; 28-day repeat dose, higher doses) was “mucosal hypertrophy and hyperplasia in the gastrointestinal tract with associated changes in the mesenteric lymph nodes, anagen phase arrest of hair follicles, and further alterations in iron metabolism” and the heart rate ([4]; higher doses) was “increased heart rates”.
